Reference: patent publication US20250206845A1, “PHARMACEUTICAL COMPOSITION INCLUDING RHO-KINASE INHIBITOR FOR PREVENTION OR TREATMENT OF CUTANEOUS FIBROTIC DISORDERS SUCH AS KELOID, ETC. AND USE THEREOF” (Seoul National University R&DB Foundation, priority 2022, published 2025)
Where two headings read alike, the source gives them in different places.

Assays:
[1] = tested on: phosphorylated cofilin and myosin light chain (MLC); assay: Western blotting of p-MLC/MLC and p-cofilin/cofilin in keloid fibroblasts; type: cell-based, human; settings: keloid fibroblasts with or without stretch, Y-27632, FIG. 4C
Protocol: Scale bar=50 μm. The results were expressed as the mean with SD (n=5). The experiments were performed in triplicate. Student's t test was used for all analyses. * P<0.05. […] To obtain whole-cell extracts, cells were lysed with Pierce Cell Lysis Buffer (Thermo Fisher, MA, USA) containing phosphatase inhibitors and protease inhibitors. Protein extracts (30 μg) were analyzed by sodium dodecyl sulfate polyacrylamide gel electrophoresis (SDS-PAGE) and transferred to a polyvinylidene difluoride membrane. […] GAPDH was used as a loading control for Western blotting analysis.

ROCK1 = settings: FIG. 4A
Protocol: Mechanical stretching was applied to keloid fibroblasts using a mechanical stretching device (STB-1400; Strex Inc., Osaka, Japan). Briefly, the keloid fibroblasts were seeded at a density of 1.2×10^5 cells in a strex stretch chamber (STB-CH-10 Strex Inc., Osaka, Japan) pre-coated with 20 μg/ml rat tail type I collagen (C7661, Sigma Aldrich). After allowing attachment for overnight incubation, the strex stretch chamber was moved to the stretching device and mounted on a hook. The flexible silicone chamber was exposed to stretching with a length of 0-20% tension at a frequency of 10 cycles/min (0.166 Hz) for 24 hours. […] Cells of the control group were cultured in the same type of chamber in an incubator.
ROCK1 kinase activity was analyzed with a ROCK activity assay kit (Cell Biolabs, CA, USA) according to the manufacturer's instructions. The ROCK activity assay kit is an enzyme immunoassay designed to detect the phosphorylation level of myosin phosphatase target subunit 1 at Thr696 by ROCK. […] The cells were harvested, trypsinized, and washed twice with PBS. […] Protein concentrations were determined using the Pierce BCA Quantification Protein Kit (Thermo Fisher Scientific, MA, USA). […] The absorbance was read at 450 nm with a SpectraMax Plus 384 microplate reader (Molecular Devices, San Jose, CA, USA).

keloid fibroblasts [2] = assay: Cell viability / proliferation of keloid fibroblasts (CCK-8); type: cell-based, human; settings: increasing dose of Y-27632, 24 hours, FIG. 3A
Protocol: Immunofluorescence confocal microscopy experiments were performed with antibodies to F-actin (green) and vinculin (orange). Scale bar=50 μm. Quantification of fluorescence intensity was shown. The experiments were performed in triplicate. Student's t test was used for all analyses. * P<0.05. […] Briefly, human skin and keloid tissues were collected from five patients who underwent surgical resection at Seoul National University Boramae Hospital. The samples were rinsed three times with Dulbecco's phosphate-buffered saline containing 1% antibiotic-antifungal solution (A/A; Welgene, Gyeongsangbuk-do, Korea) and cut into 3 mm thick pieces. The tissues were then placed in 5 mg/ml dispase solution (Roche, Basel, Switzerland) for 4 hours at 37° C. The dermis and epidermis were separated, chopped into 1-mm thick pieces, and digested in 3 mg/ml collagenase type I (Thermo Fisher, MA, USA) to obtain a single cell suspension. The cells were cultured in Dulbecco's modified Eagle's medium (DMEM; Biowest, Nuaillé, France) containing 10% fetal bovine serum (FBS; Biowest, France) and 1% Antibiotic/Antimycotic Solution (Welgene Inc., Korea) in a humidified incubator at 37° C. and 5% CO2. […] The effect of stretch stimulation on the proliferation of normal and keloid fibroblasts was evaluated by the CCK-8 assay. […] The experiments were performed in triplicate and the data are expressed as the mean±SD.

[3] = tested on: keloid nodules formed by human keloid fibroblasts; assay: In vivo histological and immunohistochemical analysis of keloid nodules; parameters: species or system SCID mice
Protocol: A isolates nodules from mice treated with DMSO or Y-27632. […] Original magnification: ×200, scale bar=100 μm.
Nodules were harvested 14 days after initial cell injection, fixed in 4% paraformaldehyde at 4° C. for 24 hours, washed with water for at least 4 hours, and finally embedded in paraffin. Paraffin sections (4 μm thick) were stained with hematoxylin and eosin (H&E, ab245880, Abcam, Cambridge, UK) and MT (TRM-2, ScyTek, Logan, Utah, USA) according to the manufacturer's instructions. The cytoplasm (400× magnification) of H&E-stained sections and the collagen density (400× magnification) of MT-stained sections were checked for each section using an Olympus BX53 microscope (Olympus Corporation, Shinjuku, Japan). Screenshots of three fine fields (right, center, and left) were acquired. The number of inflammatory cells per unit area (0.1 mm^2) was calculated using Olympus cellSens standard imaging software. The optical density of collagen was measured using ImageJ Immunohistochemical staining by avidin-biotin complex method. Briefly, paraformaldehyde (4%) fixed specimens were embedded in paraffin and cut into 4 μm thickness. The sections were dried at 56° C. for 1 hour, and then subjected to deparaffinization and rehydration steps with xylene. The sections were then cultured with trypsin enzyme antigen retrieval solution (ab970, Abcam, Cambridge, UK) at 37° C. for 30 min. Overnight culture was performed with primary antibodies at 4° C. After three washes with Tris-buffered saline containing 0.025% Triton-100, the second antibody was applied to each section at room temperature for 30 min. Images were taken in three fields (right, center, and left) with an Olympus BX53 microscope and analyzed with Image J software.

F-actin = F-actin immunofluorescence in keloid fibroblasts; type: cell-based, human
Protocol: Immunofluorescence confocal microscopy experiments were performed with antibodies to F-actin (green) and vinculin (orange). Scale bar=50 μm. Quantification of fluorescence intensity was shown. The experiments were performed in triplicate. Student's t test was used for all analyses. * P<0.05. […] Scale bar=50 μm. The results were expressed as the mean with SD (n=5). The experiments were performed in triplicate. Student's t test was used for all analyses. * P<0.05. […] Cells were washed twice with cold PBS and fixed overnight at 4° C. with 4% (w/v) paraformaldehyde. […] The cells were exposed to blocking buffer (1% BSA/PBS) for 30 min at room temperature and then exposed to Alexa Fluor 488-conjugated phalloidin (#A12379, Invitrogen, USA) in 1% BSA/0.1% Triton X-100/PBS for 1 hour at room temperature. After three washing steps, the cells were mounted with DAPI mounting medium, sealed with coverslip, and examined using a confocal laser scanning microscope (LSM 900; Carl Zeiss, NY, USA).

YAP and MRTF = assay: Nuclear translocation of YAP and MRTF during stretching (subcellular fractionation, Western blotting); type: cell-based, human; settings: stretched keloid fibroblasts, FIG. 6
Text: A is a Western blotting analysis of nuclear translocation of YAP and MRTF in the subcellular fraction of keloid fibroblasts subjected to or not subjected to mechanical stretching with or without Y-27632. B is a quantitative analysis of cytoplasmic and nuclear expression levels of MRTF and YAP. The results were expressed as the mean with SD (n=5). Student's t test was used for all analyses. *P<0.05. Nuclear/cytoplasmic extracts were separated separately using NE-Per Nuclear and Cytoplamic Extractons Reagents (#78833, Thermo Scientific, MA, USA) according to the manufacturer's instructions. Subcellular fractionation lysis was analyzed by Western blotting analysis for YAP (#5157, Cell Signaling, MA, USA), MRTF (sc-47724, Santa Cruz, CA, USA) including GADPH ([…], Santa Cruz, CA, USA) and Lamin B (#12586, Cell Signaling, MA, USA) as internal markers for cytoplasmic and nuclear fractions, respectively. The quantification was performed with Image J software.

[4] = tested on: COL1A1, COL3A1, Fibronectin, α-SMA, CTGF, PCNA mRNA; assay: qRT-PCR of pro-fibrotic genes in keloid fibroblasts; type: cell-based, human; settings: mechanically stimulated keloid fibroblasts, FIG. 5A
Protocol: Scale bar=200 μm. The results were expressed as the mean with SD (n=5). Student's t test was used for all analyses. * P<0.05. […] Total RNA was extracted using TRIzol reagent (Thermo Fisher Scientific, MA, USA). RNA (1000 ng) was subjected to cDNA synthesis using oligo (dT) random primers (Integrated DNA Technologies, IA, US) and AccuPower RT PreMix (Bioneer, South Korea) according to the following procedure: qRT-PCR was performed with PowerUp SYBR green master mix on a StepOnePlus real-time PCR System (Applied Biosystems, CA, USA) at 42° C. for 60 min and 95° C. for 5 min. The mRNA levels of each gene were normalized to the mRNA levels of GAPDH. The PCR steps are composed of an initial denaturation step at 94° C. for 5 min; at 94° C. for 1 min (denaturation), 55° C. for 1 min (annealing), and 72° C. for 2 min (extension); and a final extension step at 72° C. for 7 min. […] Relative expression was calculated using the 2-ΔΔCt method.

[5] = tested on: keloid nodules formed by human keloid fibroblasts; assay: Patient-derived keloid xenograft SCID mouse model of nodule formation (nodule volume and weight); type: in vivo; settings: SCID mice, Y-27632 20 mg/kg injected into nodule
Protocol: Approval for animal experiments was obtained from the Animal Experiment Performance Committee of Seoul National University Boramae Hospital (Approval No.: 2019-0031). Male NOD.CB17-Prkdc scid/J (SCID) mice (5 weeks old, weight: 22.58±0.91 g) were purchased from Charles River Japan (Yokohama, Japan). All animal experimental procedures were performed in accordance with the guidelines of the Animal Experiment Research Committee of Seoul Boramae Hospital. All experiments were performed under aseptic conditions. Under anesthesia using isoflurane, the dorsal furs of seven SCID mice were removed, the midline was marked, and then a 26-gauge needle was used in a 1-ml syringe (Becton, Dickinson and Company, Franklin Lakes, NJ, USA). These cells were obtained from seven patients who underwent keloid resection at Seoul National University Boramae Hospital. The cells were injected approximately 1 cm apart from the left and right sides of the most prominent area of the mouse's back. […] The nodules were measured every 2 to 3 days with calipers, and nodule volume was calculated using the following equation: Nodule volume=½×A×B2, where A=length in millimeters, B=width in millimeters. To collect the nodules 14 days after keloid fibroblast injection, the surrounding skin was carefully separated using forceps and a blade, and only the nodules were collected and weighed.

keloid fibroblasts [6] = assay: Transwell migration analysis of keloid fibroblasts; type: cell-based, human; settings: under mechanical force (stretch 24 hours), 10 μM Y-27632, transwell 24 hours, FIG. 5B
Protocol: Scale bar=200 μm. The results were expressed as the mean with SD (n=5). Student's t test was used for all analyses. * P<0.05.
For migration analysis using Transwell […] pore-size polycarbonate membrane (#3422, Corning Inc., ME, USA). […] As a control, static cells were cultured in a strex stretch chamber under the same conditions without stretch stimulation. Keloid cells were then harvested and counted, and 2×10^4 cells were resuspended in 150 μL of medium containing 1% FBS and reintroduced into the upper compartment of the insert. The lower compartment was filled with 500 μL of medium containing 2% FBS as a chemoattractant. The cells were allowed to migrate for 24 hours at 37° C. The cells were fixed in 4% PFA, permeabilized with 0.1% Triton X-100 in PBS for 10 min, and stained with hematoxylin for 10 min at room temperature. After washing with PBS, non-migrated cells were removed from the upper insert by a cotton swab. The polycarbonate membrane was removed from the insert and mounted on a slide. Fields of migrated cells were captured with an inverted microscope (Leica Microsystems GmbH, Wetzlar, Germany). The migration area was evaluated as a purple area extracted from each image, and analyzed with Image J software as a percentage of the migrated area.

C[C@@H](N)[C@H]1CC[C@H](C(=O)Nc2ccncc2)CC1 [Y-27632]
expression of phosphorylated proteins (p-cofilin, p-MLC) [1]: greatest decrease | decrease in the activity of ROCK1 (ROCK1; keloid fibroblasts treated with Y-27632 (10 μM, 24 hours) and stretch-stimulated): 26% | decrease in the activity of ROCK1 (ROCK1; keloid fibroblasts treated with Y-27632 alone (10 μM, 24 hours, static)): 10.8% | inhibitory effect on keloid fibroblast proliferation (keloid fibroblasts [2]): No inhibitory effect | inflammatory cells in the keloid region ([3]; H&E staining, compared to the control group): reduced inflammatory cells | deposition of collagen bundles (MT staining) ([3]; control group compared to the Y-27632-treated group): higher deposition of collagen bundles in the control group | protein expression of VEGF, SMA, vimentin, collagen type I, and collagen type III ([3]; immunohistochemistry of nodule tissue, compared to the DMSO-treated group, FIG. 7B): significantly reduced | disruption of F-actin cytoskeletal structure (F-actin; at 25 and 50 μM, 24 h, keloid fibroblasts): dramatic disruption | cellular F-actin network (F-actin; fibroblasts with or without mechanical stretching exposed to Y-27632, FIG. 4B): significantly disrupted | F-actin fiber formation in keloid fibroblasts (F-actin; increasing doses, 24 h, FIG. 3B): tightly regulated by Y-27632 treatment in a dose-dependent manner | nuclear import of YAP and MRTF (YAP and MRTF): inhibiting nuclear import | mRNA levels of fibrotic genes (COL1A1, COL3A1, Fibronectin, α-SMA, CTGF, PCNA) [4]: decrease | weight of keloid nodules compared to the control group [5]: significantly reduced | mean volume of keloid nodules at the time of keloid nodule excision ([5]; DMSO control 21.27±13.98): 17.21±13.49 MM^3 | average weight of keloid nodules ([5]; control 7.61±3.16, FIG. 7A): 4.56±3.50 Mg | migration of keloid fibroblasts (keloid fibroblasts [6]): partially inhibited
